# Numbers after ± are expanded uncertainties.
# Conditions: Liquid, Chromatography
smiles,measurement,setting,value
O=C=O [carbon dioxide],vapor or sublimation pressure,223.14 K,682.9 ± 53 kPa
same,vapor or sublimation pressure,298.17 K,6436.9 ± 500 kPa
same,vapor or sublimation pressure,303.16 K,7210.5 ± 560 kPa
